Test results reported in the NIST ThermoML archive (doi:10.1021/je900387e).

Test: xn = mol fraction of the nth substance listed
Details: Liquid, Pycnometric method

CCCCBr [1-bromobutane] + O=C=O
Details	mass density [kg/m3]
327.6 K, 10630 kPa, x1 = 0.0683	752
327.6 K, 10660 kPa, x1 = 0.0461	688
327.6 K, 10730 kPa, x1 = 0.0989	833
327.6 K, 10780 kPa, x1 = 0.1495	951
327.6 K, 10840 kPa, x1 = 0.0461	698
327.6 K, 10920 kPa, x1 = 0.0683	762
327.6 K, 10990 kPa, x1 = 0.0461	706
327.6 K, 11000 kPa, x1 = 0.1495	954
327.6 K, 11060 kPa, x1 = 0.0989	839
327.6 K, 11240 kPa, x1 = 0.0683	773
327.6 K, 11280 kPa, x1 = 0.1495	958
327.6 K, 11310 kPa, x1 = 0.0989	845
327.6 K, 11520 kPa, x1 = 0.1495	961
327.6 K, 11590 kPa, x1 = 0.0683	783
327.6 K, 11620 kPa, x1 = 0.0989	851
327.6 K, 11790 kPa, x1 = 0.1495	964
327.6 K, 11960 kPa, x1 = 0.0989	857
327.6 K, 11990 kPa, x1 = 0.0683	794
327.6 K, 12050 kPa, x1 = 0.1495	967
327.6 K, 12310 kPa, x1 = 0.0989	862
327.6 K, 12370 kPa, x1 = 0.1495	970
327.6 K, 12460 kPa, x1 = 0.0683	805
327.6 K, 12670 kPa, x1 = 0.1495	974
327.6 K, 12710 kPa, x1 = 0.0989	869
327.6 K, 13000 kPa, x1 = 0.1495	977
327.6 K, 13040 kPa, x1 = 0.0683	817
327.6 K, 13110 kPa, x1 = 0.0989	875
327.6 K, 13350 kPa, x1 = 0.1495	981
327.6 K, 13520 kPa, x1 = 0.0989	880
327.6 K, 13650 kPa, x1 = 0.0683	829
327.6 K, 13660 kPa, x1 = 0.1495	984
327.6 K, 13960 kPa, x1 = 0.1495	987
327.6 K, 13980 kPa, x1 = 0.0989	887
327.6 K, 13990 kPa, x1 = 0.0683	835
327.6 K, 14320 kPa, x1 = 0.1495	990
327.6 K, 14470 kPa, x1 = 0.0989	893
327.6 K, 14690 kPa, x1 = 0.1495	993
327.6 K, 14740 kPa, x1 = 0.0683	848
327.6 K, 14960 kPa, x1 = 0.0683	851
327.6 K, 15000 kPa, x1 = 0.0989	900
327.6 K, 15090 kPa, x1 = 0.1495	997
332.4 K, 9170 kPa, x1 = 0.0245	317
332.4 K, 9200 kPa, x1 = 0.0245	319
332.4 K, 9250 kPa, x1 = 0.0245	323
332.4 K, 9300 kPa, x1 = 0.0245	328
332.4 K, 9350 kPa, x1 = 0.0245	332
332.4 K, 9350 kPa, x1 = 0.1495	896
332.4 K, 9400 kPa, x1 = 0.0245	336
332.4 K, 9440 kPa, x1 = 0.0245	340
332.4 K, 9490 kPa, x1 = 0.0245	345
332.4 K, 9540 kPa, x1 = 0.0245	349
332.4 K, 9580 kPa, x1 = 0.0245	354
332.4 K, 9580 kPa, x1 = 0.1495	900
332.4 K, 9640 kPa, x1 = 0.0245	359
332.4 K, 9670 kPa, x1 = 0.0989	750
332.4 K, 9690 kPa, x1 = 0.0245	364
332.4 K, 9740 kPa, x1 = 0.0245	369
332.4 K, 9760 kPa, x1 = 0.1495	903
332.4 K, 9780 kPa, x1 = 0.0989	755
332.4 K, 9790 kPa, x1 = 0.0245	375
332.4 K, 9810 kPa, x1 = 0.0461	512
332.4 K, 9830 kPa, x1 = 0.0461	516
332.4 K, 9840 kPa, x1 = 0.0245	380
332.4 K, 9840 kPa, x1 = 0.0683	622
332.4 K, 9870 kPa, x1 = 0.0683	625
332.4 K, 9890 kPa, x1 = 0.0461	521
332.4 K, 9890 kPa, x1 = 0.0989	759
332.4 K, 9890 kPa, x1 = 0.1495	906
332.4 K, 9900 kPa, x1 = 0.0245	386
332.4 K, 9900 kPa, x1 = 0.0683	629
332.4 K, 9930 kPa, x1 = 0.0461	527
332.4 K, 9950 kPa, x1 = 0.0245	392
332.4 K, 9960 kPa, x1 = 0.0683	636
332.4 K, 9970 kPa, x1 = 0.0461	533
332.4 K, 10000 kPa, x1 = 0.0683	640
332.4 K, 10000 kPa, x1 = 0.0989	764
332.4 K, 10010 kPa, x1 = 0.0245	398
332.4 K, 10020 kPa, x1 = 0.0245	399
332.4 K, 10020 kPa, x1 = 0.0461	539
332.4 K, 10040 kPa, x1 = 0.1495	909
332.4 K, 10060 kPa, x1 = 0.0461	546
332.4 K, 10070 kPa, x1 = 0.0683	647
332.4 K, 10110 kPa, x1 = 0.0989	769
332.4 K, 10120 kPa, x1 = 0.0461	552
332.4 K, 10150 kPa, x1 = 0.0683	654
332.4 K, 10180 kPa, x1 = 0.0461	559
332.4 K, 10190 kPa, x1 = 0.1495	912
332.4 K, 10240 kPa, x1 = 0.0461	566
332.4 K, 10240 kPa, x1 = 0.0683	662
332.4 K, 10240 kPa, x1 = 0.0989	774
332.4 K, 10300 kPa, x1 = 0.0461	573
332.4 K, 10340 kPa, x1 = 0.0683	670
332.4 K, 10370 kPa, x1 = 0.0461	580
332.4 K, 10370 kPa, x1 = 0.0989	778
